Reference: PubChem BioAssay (NCI)
Several values for one entry are separate records, joined by “and”; a condition that tells them apart may be missing. Equal values may be shown once.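 The compound was tested at five concentrations on cells cultured in 96-well plates, with a 48-hour exposure period. GI50 is the concentration that inhibits growth by half. TGI marks complete inhibition of growth.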

How the values were obtained:
Test in all cases: NCI tumour cell line growth inhibition, 48 h
786-0 renal = tested on: 786-0 renal
A498 renal = tested on: A498 renal
CCRF-CEM leukemia = tested on: CCRF-CEM leukemia
COLO 205 colon = tested on: COLO 205 colon
DU-145 prostate = tested on: DU-145 prostate
MOLT-4 leukemia = tested on: MOLT-4 leukemia
OVCAR-4 ovarian = tested on: OVCAR-4 ovarian
PC-3 prostate = tested on: PC-3 prostate
SN12C renal = tested on: SN12C renal
UO-31 renal = tested on: UO-31 renal

SMILES | GI50 (786-0 renal) | TGI (786-0 renal) | GI50 (A498 renal) | TGI (A498 renal) | GI50 (CCRF-CEM leukemia) | TGI (CCRF-CEM leukemia) | GI50 (COLO 205 colon) | TGI (COLO 205 colon) | GI50 (DU-145 prostate) | TGI (DU-145 prostate) | GI50 (MOLT-4 leukemia) | TGI (MOLT-4 leukemia) | GI50 (OVCAR-4 ovarian) | TGI (OVCAR-4 ovarian) | GI50 (PC-3 prostate) | TGI (PC-3 prostate) [µM] | GI50 (SN12C renal) | TGI (SN12C renal) | GI50 (UO-31 renal) | TGI (UO-31 renal)
COc1cc2c(cc1Nc1nc(N3CCc4ccccc43)c3cc[nH]c3n1)N(C(=O)CN(C)C)CC2 | 3 µM | 8.99 µM | 8.43 µM | 14.1 µM | 0.611 µM | 1.49 µM | 5.4 µM | 14.3 µM | 1.71 µM | 3.87 µM | 1.88 µM | 4.79 µM | 2.84 µM | 9.04 µM | 2.24 µM | 6.43 | 3.05 µM | 7.47 µM | 5.26 µM | 11.6 µM
O=C1Oc2ccccc2C(=O)/C1=C1/C=C(c2ccccc2)SS1 |  | > 100 µM |  | > 100 µM |  | 49.6 µM |  | > 100 µM |  | > 100 µM |  | 71.8 µM |  | > 100 µM |  | > 100 |  | > 100 µM |  | > 100 µM
COc1cc2c(N3CCN(C(=O)Nc4ccc(OC(C)C)cc4)CC3)ncnc2cc1OCCCN1CCCCC1 | 17.6 µM | 37.8 µM | 15 µM | 40.7 µM | 18.3 µM | > 79.3 µM | 11.9 µM | 26.5 µM | 22 µM | > 85.3 µM | 12.8 µM | 61.2 µM | 14.4 µM | 53.9 µM | 18.8 µM | > 100 | 14.9 µM | 88 µM | 15.2 µM | 40.7 µM
CNCc1cccc2c1OCCOCCOCCN(C)S(=O)(=O)c1ccc(cc1)-c1cnc(N)c(n1)C(=O)N2 | 0.446 µM | 1.99 µM | 0.133 µM | 4.04 µM | 0.549 µM | 3.95 µM | 0.775 µM | 3.23 µM | 1.27 µM | 15.2 µM | 0.41 µM | 11.8 µM |  |  | 1.94 µM | 8.09 | 1.48 µM | 3.41 µM | 1.21 µM | 2.91 µM
COC1N(C2CC(O)C(CO)O2)C(=O)NC(=O)C1(F)Br (stereo unspecified) | 31.9 µM | 50 µM and > 100 µM | 0.821 µM | 50 µM and > 65 µM | 27.6 µM | 50 µM and > 75.4 µM | 42.6 µM | 50 µM and > 100 µM |  | > 100 µM | 13.3 µM | 15.8 µM and > 100 µM | > 59.1 µM | > 100 µM |  | > 100 | 15.6 µM | 50 µM and > 100 µM | > 50 µM | > 100 µM
O=c1c2ccccc2sc2c(CO)ccc(NCCN3CCCCC3)c12 |  | 12.2 µM |  | 9.61 µM |  | 3.99 µM |  | 4.78 µM |  | 7.18 µM |  | 5.36 µM |  | 9.46 µM |  | 15.1 |  | 15.6 µM |  | 4.98 µM
CC1(C)OC[C@@H]([C@@]2(CO[Si](c3ccccc3)(c3ccccc3)C(C)(C)C)CC=CC(=O)O2)O1 | 8.96 µM | 32.8 µM | 17.1 µM | 34.2 µM | 6.63 µM | > 100 µM | 8.69 µM | > 100 µM | 12.7 µM | > 100 µM | 8.94 µM | > 100 µM | 16.1 µM | > 100 µM | 5.92 µM | > 100 | 5.39 µM | 35.9 µM | 12.2 µM | > 100 µM
Cc1nn(-c2ccc(Cl)cc2)c2ncnc(N/N=C/c3ccccc3O)c12 | 0.768 µM and 0.509 µM | 7.55 µM and 5.84 µM | 12.3 µM and 3.23 µM | 70.1 µM and 23.5 µM | 0.342 µM and 0.23 µM | > 100 µM | 0.776 µM and 0.398 µM | > 46.2 µM and 27.6 µM | 0.488 µM and 0.472 µM | 16.4 µM and > 100 µM | 0.518 µM and 0.326 µM | > 100 µM | 0.436 µM and 0.237 µM | 50.9 µM and 14.2 µM | 1.09 µM and 0.568 µM | > 100 | 0.804 µM and 0.473 µM | > 91.7 µM | 0.331 µM and 0.251 µM | 3.01 µM and 3.35 µM
O=C1/C(=C/c2ccc(Cl)c(Cl)c2)CN(C(=O)CCN2CCC(=NO)CC2)C/C1=C\c1ccc(Cl)c(Cl)c1 | 0.609 µM | 1.45 µM | 1.44 µM | 2.89 µM | 0.292 µM | 1.73 µM | 0.391 µM | 1.54 µM | 1.21 µM | 2.73 µM | 0.458 µM | 2.26 µM | 0.678 µM | 1.96 µM | 0.545 µM | 1.66 | 0.597 µM | 1.73 µM | 0.654 µM | 1.34 µM
CC(Br)C(=O)NC(CO)C(=O)O (stereo unspecified) |  | > 100 µM |  | > 100 µM |  | > 100 µM |  | > 100 µM |  | > 100 µM |  | > 100 µM |  | > 100 µM |  | > 100 |  | > 100 µM |  | > 100 µM
Cn1nccc1Nc1nccc(-c2ccn([C@H](CO)c3ccc(Cl)c(F)c3)c(=O)c2)n1 | 31.4 µM | > 100 µM | 1.07 µM | 15.3 µM | 15.7 µM | > 85.1 µM | 0.0649 µM | 16.7 µM | 27.7 µM | > 100 µM | 24.4 µM | > 92.2 µM | 33.5 µM | > 100 µM | 43.6 µM | > 100 | 10 µM | > 100 µM | 24.7 µM | > 100 µM
Nc1ncc(Cc2ccc3c(c2)OCO3)c(N)n1 |  | > 100 µM |  | > 100 µM |  | > 100 µM |  | > 100 µM |  | > 100 µM |  | > 100 µM |  | > 100 µM |  | > 100 |  | > 100 µM |  | > 100 µM
CC(C)(CO)CNC(=O)c1ccc2[nH]c(O)c(N=Nc3ccc(S(N)(=O)=O)cc3)c2c1 | > 25 µM | > 25 µM | > 25 µM | > 25 µM | > 25 µM | > 25 µM | > 25 µM | > 25 µM | > 25 µM | > 25 µM | > 25 µM | > 25 µM | > 25 µM | > 25 µM | > 25 µM | > 25 | > 25 µM | > 25 µM | > 25 µM | > 25 µM
CSC1=Nc2c(c(C)c(C)n2COC(CO)CO)C2=NC(=O)CN12 | > 100 µM | > 100 µM | > 100 µM | > 100 µM | > 100 µM | > 100 µM | > 100 µM | > 100 µM | > 100 µM | > 100 µM | > 100 µM | > 100 µM | > 100 µM | > 100 µM | > 100 µM | > 100 | > 100 µM | > 100 µM | > 100 µM | > 100 µM
